According to US6818445B2 (Synaptic Pharmaceutical Corporation, priority 1994, dated 2004):

How the values were obtained:
human α2A receptor = target: T1, human α2A receptor (Homo sapiens, UniProt P08913); assay: Binding to cloned human α2A adrenergic receptor, [3H]rauwolscine
T1 sequence (P08913 1-465): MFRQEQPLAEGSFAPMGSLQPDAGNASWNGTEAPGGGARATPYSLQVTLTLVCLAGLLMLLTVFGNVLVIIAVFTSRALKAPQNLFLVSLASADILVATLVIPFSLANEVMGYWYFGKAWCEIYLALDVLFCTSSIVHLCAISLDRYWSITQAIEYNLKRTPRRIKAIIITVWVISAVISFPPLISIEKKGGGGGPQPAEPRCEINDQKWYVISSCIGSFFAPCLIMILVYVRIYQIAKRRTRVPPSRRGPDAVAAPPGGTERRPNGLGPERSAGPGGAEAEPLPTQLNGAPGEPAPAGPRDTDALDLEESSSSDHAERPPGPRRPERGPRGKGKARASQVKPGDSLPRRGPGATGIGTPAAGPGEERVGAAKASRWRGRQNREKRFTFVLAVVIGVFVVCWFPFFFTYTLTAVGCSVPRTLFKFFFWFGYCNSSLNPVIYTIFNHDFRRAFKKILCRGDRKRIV

human α1a receptor = target: T2, human α1a receptor (Homo sapiens, UniProt P35348); assay: Binding to cloned human α1a adrenergic receptor
T2 sequence (P35348 1-466): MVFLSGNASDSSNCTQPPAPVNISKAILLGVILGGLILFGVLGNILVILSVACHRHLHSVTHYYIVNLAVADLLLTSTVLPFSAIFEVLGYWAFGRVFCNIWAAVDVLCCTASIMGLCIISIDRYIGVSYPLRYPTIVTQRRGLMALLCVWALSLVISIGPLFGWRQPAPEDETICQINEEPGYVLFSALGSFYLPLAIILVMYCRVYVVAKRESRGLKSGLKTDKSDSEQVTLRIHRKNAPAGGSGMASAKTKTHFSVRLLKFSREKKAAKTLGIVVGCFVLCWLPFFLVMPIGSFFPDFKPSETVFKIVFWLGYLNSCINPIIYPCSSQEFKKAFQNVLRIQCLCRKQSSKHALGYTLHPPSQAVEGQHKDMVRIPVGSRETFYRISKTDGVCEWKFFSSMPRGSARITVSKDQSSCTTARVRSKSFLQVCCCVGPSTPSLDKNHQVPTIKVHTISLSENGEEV

human α1d receptor = target: T3, human α1d receptor (Homo sapiens, UniProt P25100); assay: Binding to cloned human α1d adrenergic receptor
T3 sequence (P25100 1-572): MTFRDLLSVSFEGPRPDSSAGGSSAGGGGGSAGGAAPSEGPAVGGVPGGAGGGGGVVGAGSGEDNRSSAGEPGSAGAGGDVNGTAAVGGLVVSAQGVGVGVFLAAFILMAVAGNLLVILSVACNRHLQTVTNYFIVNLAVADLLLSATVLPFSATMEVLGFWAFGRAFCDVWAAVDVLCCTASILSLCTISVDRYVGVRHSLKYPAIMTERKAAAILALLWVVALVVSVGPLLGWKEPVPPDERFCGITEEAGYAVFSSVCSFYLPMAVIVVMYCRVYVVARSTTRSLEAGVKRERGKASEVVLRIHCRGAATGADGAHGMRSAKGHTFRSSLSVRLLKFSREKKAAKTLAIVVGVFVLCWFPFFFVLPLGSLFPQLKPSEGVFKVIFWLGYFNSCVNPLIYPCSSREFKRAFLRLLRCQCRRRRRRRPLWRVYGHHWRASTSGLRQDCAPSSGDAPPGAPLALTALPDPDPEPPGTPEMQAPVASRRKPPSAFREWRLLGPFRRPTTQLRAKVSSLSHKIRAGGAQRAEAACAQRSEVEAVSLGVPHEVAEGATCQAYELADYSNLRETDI

human Y1 receptor = target: T4, human Y1 receptor (Homo sapiens, UniProt P25929); conditions: read-out: Binding Affinity (Ki (nM) vs. ^125I-PYY) Human Receptor Y1; Table 14
T4 sequence (P25929 1-384): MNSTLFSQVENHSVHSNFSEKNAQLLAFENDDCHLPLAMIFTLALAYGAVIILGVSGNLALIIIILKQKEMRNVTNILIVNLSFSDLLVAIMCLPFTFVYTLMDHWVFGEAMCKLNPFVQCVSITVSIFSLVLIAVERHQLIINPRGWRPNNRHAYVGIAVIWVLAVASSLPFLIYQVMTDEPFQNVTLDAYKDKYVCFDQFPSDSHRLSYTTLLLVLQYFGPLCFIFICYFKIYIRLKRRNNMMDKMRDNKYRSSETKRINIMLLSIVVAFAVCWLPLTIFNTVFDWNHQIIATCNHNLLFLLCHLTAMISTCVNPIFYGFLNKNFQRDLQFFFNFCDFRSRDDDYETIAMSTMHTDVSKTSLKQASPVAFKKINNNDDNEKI

human Y2 receptor = target: T5, human Y2 receptor (Homo sapiens, UniProt P49146); assay type: binding; conditions: read-out: Binding Affinity (Ki (nM) vs. ^125I-PYY) Human Receptor Y2; Table 14
T5 sequence (P49146 1-381): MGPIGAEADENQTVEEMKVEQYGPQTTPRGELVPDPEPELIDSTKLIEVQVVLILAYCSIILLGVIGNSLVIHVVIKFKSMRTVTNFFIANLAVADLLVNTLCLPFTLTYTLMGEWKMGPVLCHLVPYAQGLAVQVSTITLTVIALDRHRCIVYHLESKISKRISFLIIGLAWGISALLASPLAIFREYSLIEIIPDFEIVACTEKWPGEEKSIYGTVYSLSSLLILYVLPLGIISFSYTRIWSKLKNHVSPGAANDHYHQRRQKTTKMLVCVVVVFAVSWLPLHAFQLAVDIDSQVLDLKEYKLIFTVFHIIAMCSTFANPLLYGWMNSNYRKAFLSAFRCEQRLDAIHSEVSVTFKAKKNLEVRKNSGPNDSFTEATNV

| SMILES | Receptor (pKi) α2a (human α2A receptor) | Receptor (pKi) α1a (human α1a receptor) | Receptor (pKi) α1d (human α1d receptor) | Ki (human Y1 receptor) | Ki (human Y2 receptor) |
| --- | --- | --- | --- | --- | --- |
| Cl.O=S(=O)(NC[C@H]1CC[C@H](CNCC2CCc3ccccc3C2)CC1)c1cccc2ccccc12 (stereo partly drawn) [Compound 19] | 6.74 | 7.47 | 6.90 | 3550 nM | 955 nM |
| Cl.O=[N+]([O-])c1ccccc1S(=O)(=O)NC[C@H]1CC[C@H](CNCC2CCc3ccccc3C2)CC1 (stereo partly drawn) [Compound 20] | 7.31 | 7.72 | 7.01 | 16000 nM | 7760 nM |
| Cl.Cl.Nc1ccccc1S(=O)(=O)NCC1CCC(CNCC2CCc3ccccc3C2)CC1 (stereo not drawn) [Compound 22] | 7.05 | 7.34 | 6.80 | 17200 nM | 7570 nM |
